What was measured:
[1] = test system: HCT116/MUC1 as compared to HCT116/vector cells; experiment: Colony formation assay; type: cell-based, human; settings: 12-48 h treatment, 8 d culture
Procedure: (§1) Colony formation assays. Aliquots containing 500 cells were plated into individual wells of 6-well culture plates containing 2 ml/well complete medium and incubated for 18-24 h at 37° C. The cells were treated with CDDP or etoposide for 12-48 h, washed and incubated for 8 d. Resulting colonies were stained with crystal violet and counted manually.

ZR-75-1 cells [2] = experiment: Colony formation assay; type: cell-based, human; settings: ZR-75-1/vector vs ZR-75-1/MUC1siRNA cells, 12-48 h treatment, 8 d culture
Procedure: as §1

HCT116/vector cells [3] = experiment: ChIP with anti-p53 antibody, p21 gene p53RE2; type: cell-based, human; settings: 50 μM, 8 h
Procedure: (§2) Chromatin immunoprecipitation (ChIP) and Repeat ChIP (Re-ChIP) assays. ChIP assays were performed as previously described [Shang et al. (2000) Cell 103:843-852] using anti-MUC1 C-ter antibody, anti-p53 antibody (Ab-6; Oncogene Research Products), anti-CBP antibody (C-1; Santa Cruz Biotechnology), anti-HDAC1 antibody (Upstate Biotechnology Inc., Waltham, Mass.), anti-Ac-H4 (Upstate Biotechnology Inc.), anti-TBP antibody (58C9; Santa Cruz Biotechnology), anti-TFIIB antibody (IIB8; Santa Cruz Biotechnology), or anti-TAFII250 antibody (6B3; Santa Cruz Biotechnology). For PCR, 2 μl from a 50 μl DNA extraction were used with 30-38 cycles of amplification. The primers for the p21 gene promoter p53-responsive elements (p53RE1 and p53RE2) have been previously described [Liu et al. (2003) J. Biol. Chem. 277:17557-17565]. The primers for the p21 gene control region (CR) were (forward: 5′-[…]-3′ (SEQ ID NO:14); reverse 5′-[…]-3′ (SEQ ID NO:15)) and the p21 gene PP were (forward: 5′-[…]-3′ (SEQ ID NO:16); reverse: 5′-[…]-3′ (SEQ ID NO:17)). Primers used for the Bax gene promoter p53RE were (forward: 5′-[…]-3′ (SEQ ID NO:18); reverse: 5′-[…]-3′ (SEQ ID NO:19)), Bax gene control region (CR) were (forward: 5′-[…]-3′ (SEQ ID NO:20); reverse: 5′-[…]-3′ (SEQ ID NO:21)) and the Bax gene PP were (forward: 5′-[…]-3′ (SEQ ID NO:22); reverse: 5′-[…]-3′ (SEQ ID NO:23)).

ZR-75-1 cells [4] = experiment: ChIP with anti-MUC1 C-ter antibody, p21 gene p53RE2; type: cell-based, human; settings: 50 μM, kinetic analysis
Procedure: as §2

HCT116/MUC1 cells [5] = experiment: as above; type: cell-based, human; settings: 50 μM, kinetic analysis
Procedure: as §2

ZR-75-1 cells [6] = experiment: anti-p53 immunoprecipitation and anti-MUC1 C-ter immunoblot; type: cell-based, human; settings: 50 or 100 μM, 24 h
Procedure: (§3) Immunoblotting and immunoprecipitation. Cell lysates were prepared from subconfluent cells as previously described [Wei et al. (2003) J. Biol. Chem. 278:29288-29297]. Immunoblot analysis was performed with anti-p53 antibody (Ab-2, Ab-6; Oncogene Research Products, San Diego, Calif.), anti-MUC1 N-ter antibody [the DF3 monoclonal antibody that binds to the N-terminal segment of human MUC1; Kufe et al. (1984) Hybridoma 3:223-232], anti-MUC1 C-ter antibody (Ab-5 that binds to the C-terminal segment of human MUC1; Neomarkers, Freemont, Calif.), anti-β-actin antibody (Sigma), anti-Myc antibody (Ab-1; Oncogene Research Products), anti-Bax antibody antibody (Santa Cruz Biotechnology; Santa Cruz, Calif.) and anti-p21 (Santa Cruz Biotechnology). Lysates were subjected to immunoprecipitation with anti-p53 or anti-Myc antibody and the immune complexes were analyzed by immunoblotting.

HCT116/MUC1 cells [7] = experiment: as above; type: cell-based, human; settings: 50 or 100 μM, 24 h
Procedure: as §3

HCT116/vector cells [8] = experiment: Flow cytometry of cell cycle (DNA content); type: cell-based, human; settings: 48 h
Procedure: (§4) Flow cytometry. Cells were fixed with 80% ice-cold ethanol, incubated in phosphate buffered saline (PBS) containing 30 μg/ml RNase (Roche Applied Science) for 60 min at 37° C. and then stained with propidium iodide (Sigma) for 30 min at room temperature in the dark. DNA content was analyzed by flow cytometry (Coulter EPICS XL-MCL; Miami, Fla.).

HCT116/MUC1 cells [9] = experiment: Flow cytometry of cell cycle (DNA content); type: cell-based, human; settings: 48 h
Procedure: as §4

ZR-75-1 cells [10] = experiment: ChIP with anti-MUC1 C-ter antibody, Bax gene PP; type: cell-based, human; settings: 50 μM, time course
Procedure: as §2

HCT116/MUC1 cells [11] = experiment: ChIP with anti-MUC1 C-ter antibody, Bax gene PP; type: cell-based, human; settings: 50 μM, time course
Procedure: as §2

p53 [12] = biological target: p53 (Homo sapiens, UniProt P04637, R273H); experiment: Co-immunoprecipitation of Myc-MUC1-CD variants with p53 in transfected U2OS cells; type: cell-based; settings: transiently transfected U2OS cells
Procedure: as §3
Plasmid construction and transfection. […] Transfections were performed in 60 mm tissue culture dishes using Fugene®-6 (Roche Applied Science, Indianapolis, Ind.) or, for the luciferase assays, in 24 well tissue culture plates using the calcium phosphate method (Invitrogen, Carlsbad, Calif.). […]

p53 [13] = biological target: T1, p53 (Homo sapiens, UniProt P04637); experiment: GST pull-down of 35S-labeled p53 by GST-MUC1-CD variants; type: binding; settings: GST fusion proteins, 90 min at 4° C.
T1 construct: made in house; host or cells: cell-free TNT in vitro transcription/translation reaction (Promega)
Excerpt: GST pull-down assays. […] After washing, the adsorbed proteins were resolved by SDS-PAGE and analyzed by autoradiography or Coomassie blue staining.

## N.N.[Cl][Pt][Cl] [cisplatin]
[1]
  clonogenic survival of drug-treated cells: higher
ZR-75-1 cells [2]
  clonogenic survival following drug treatment: increased by MUC1 expression
HCT116/vector cells [3]
  p53 occupancy of the p21 gene p53RE2: increased
ZR-75-1 cells [4]
  MUC1 occupancy of p21 gene p53RE2: increases
HCT116/MUC1 cells [5]
  MUC1 occupancy of p21 gene p53RE2: increases
ZR-75-1 cells [6]
  binding of endogenous MUC1 and p53: Increased binding of endogenous MUC1 and p53
HCT116/MUC1 cells [7]
  association of p53 and MUC1: increase in the association of p53 and MUC1
HCT116/vector cells [8]
  cell cycle progression: G1 arrest of cell cycle progression
HCT116/MUC1 cells [9]
  cell cycle progression: G1 arrest of cell cycle progression
ZR-75-1 cells [10]
  MUC1 occupancy of the Bax gene PP: increased through 4-6 h
HCT116/MUC1 cells [11]
  MUC1 occupancy of the Bax gene PP: increased through 4-6 h

## COc1cc([C@@H]2c3cc4c(cc3[C@@H](O[C@@H]3O[C@@H]5CO[C@@H](C)O[C@H]5[C@H](O)[C@H]3O)[C@H]3COC(=O)[C@H]23)OCO4)cc(OC)c1O [etoposide]
[1]
  clonogenic survival of drug-treated cells: higher
ZR-75-1 cells [2]
  clonogenic survival following drug treatment: increased by MUC1 expression
HCT116/vector cells [3]
  p53 occupancy of the p21 gene p53RE2: increased
ZR-75-1 cells [4]
  MUC1 occupancy of p21 gene p53RE2: increases
HCT116/MUC1 cells [5]
  MUC1 occupancy of p21 gene p53RE2: increases
ZR-75-1 cells [6]
  binding of endogenous MUC1 and p53: Increased binding of endogenous MUC1 and p53
HCT116/MUC1 cells [7]
  association of p53 and MUC1: increase in the association of p53 and MUC1
HCT116/vector cells [8]
  cell cycle progression: G1 arrest of cell cycle progression
HCT116/MUC1 cells [9]
  cell cycle progression: G1 arrest of cell cycle progression
ZR-75-1 cells [10]
  MUC1 occupancy of the Bax gene PP: increased through 4-6 h
HCT116/MUC1 cells [11]
  MUC1 occupancy of the Bax gene PP: increased through 4-6 h

## MUC1-CD(1-51): deletion variant of MUC1-CD, amino acids 1-51 (SEQ ID NO:5) (CQCRRKNYGQLDIFPARDAYHPMSEYPTYHTHGRYVPPSSTNRSPYEKVSE; listed as Homo sapiens)
p53 [12]
  complex formation with p53 in cells: in vivo binding of p53
p53 [13]
  binding to 35S-labeled p53 in vitro: sufficient to form a complex with p53 in vitro
